Drawing on US6780994B2, “Phthalimido arylpiperazines useful in the treatment of benign prostatic hyperplasia” (Ortho-McNeil Pharmaceutical, Inc., priority 1998, dated 2004), this text covers IC50 for one compound.

The target in one assay is T1, α1b-AR (Homo sapiens, UniProt P35368).
T1 construct: expressed in transfected cells; host or cells: COS cells, pcDNA3 vector, transient DEAE-dextran transfection
T1 sequence (P35368 1-520): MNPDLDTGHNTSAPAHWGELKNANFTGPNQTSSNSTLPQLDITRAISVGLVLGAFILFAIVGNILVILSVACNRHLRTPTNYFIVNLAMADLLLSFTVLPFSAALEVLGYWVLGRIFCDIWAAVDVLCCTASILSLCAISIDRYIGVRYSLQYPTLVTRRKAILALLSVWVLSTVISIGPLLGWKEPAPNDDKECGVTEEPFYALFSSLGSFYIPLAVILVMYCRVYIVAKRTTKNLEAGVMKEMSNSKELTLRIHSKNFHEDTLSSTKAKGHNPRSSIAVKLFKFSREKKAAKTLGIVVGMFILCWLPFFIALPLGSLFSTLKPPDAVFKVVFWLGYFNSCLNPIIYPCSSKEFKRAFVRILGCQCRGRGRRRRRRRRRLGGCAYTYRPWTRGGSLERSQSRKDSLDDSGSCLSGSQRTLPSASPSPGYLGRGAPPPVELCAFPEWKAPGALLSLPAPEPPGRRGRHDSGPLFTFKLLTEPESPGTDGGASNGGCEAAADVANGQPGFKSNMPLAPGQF
Nature of the assay: radioligand ([125I]-HEAT) receptor binding assay, COS cell membranes expressing cloned receptor. As to conditions: [125I]-HEAT 50 pM, 1 hour room temperature. From the text:
(§1) The first assay tested the ability of compounds of Formula I to bind to membrane bound receptors α1a-AR, α1b-AR and α1d-AR.
(§2) The DNA sequences of the three cloned human α1-AR subtypes have been published. […] We used published DNA sequence information to design primers for use in RT-PCR amplification of each subtype to obtain cloned cDNAs. Human poly A+ RNA was obtained from commercially available sources and included hippocampus and prostate samples, sources which have been cited in the literature. For the primary screen a radioligand binding assay was used which employed membrane preparations from cells expressing the individual cloned receptor cDNAs. Radiolabeled ligands with binding activity on all three subtypes (non-selective) are commercially available ([125I]-HEAT, [3H]-prazosin). Each α1 receptor subtype was cloned from poly A+ RNA by the standard method of reverse transcription-polymerase chain reaction (RT-PCR). The following sources of polyA+ RNA were used for the cloning of the α1 receptor subtypes: α1a-AR, human hippocampus and prostate, α1b-AR, human hippocampus, α1d-AR, human hippocampus. The resulting cDNAs were cloned into the pcDNA3 mammalian expression vector (Invitrogen Corp., San Diego Calif.). Each DNA was sequenced for verification and to detect any possible mutations introduced during the amplification process. Any deviation in sequence from the published consensus for each receptor subtype was corrected by site-directed mutagenesis.
(§3) The three α1-AR subtypes (a, b, d) were transfected into COS cells using a standard DEAE-dextran procedure with a chloroquine shock. In this procedure, each tissue culture dish (100 mm) was inoculated with 3.5×10^6 cells and transfected with 10 μg of DNA. Approximately 72 hours post-transfection, the cells were harvested and COS membranes were prepared. Transfected COS cells from 25 plates (100 mm) were scraped and suspended in 15 mL of TE buffer (50 mM Tris-HCl, 5 mM EDTA, pH 7.4). The suspension was disrupted with a homogenizer. It was then centrifuged at 1000× g for 10 minutes at 4° C. The supernatant was centrifuged at 34,500× g for 20 minutes at 4° C. The pellet was resuspended in 5 mL TNE buffer (50 mM Tris-HCl, 5 mM EDTA, 150 mM NaCl, pH 7.4). The resulting membrane preparation was aliquoted and stored at −70° C. The protein concentration was determined following membrane solubilization with TritonX-100.
(§4) The ability of each compound to bind to each of the α1-AR subtypes was assessed in a receptor binding assay. [125I]-HEAT, a non-selective α1-AR ligand, was used as the radiolabeled ligand. Each well of a 96-well plate received: 140 μL TNE, […] [125I]-HEAT diluted in TNE (50,000 cpm; final concentration 50 pM), 10 μL test compound diluted in DMSO (final concentration 1 pM-10 μM), […] COS cell membrane preparation expressing one of the three α1-AR subtypes (0.05-0.2 mg membrane protein). The plate was incubated for 1 hour at room temperature and the reaction mixtures were filtered through a Packard GF/C Unifilter filter plate. The filter plate was dried for 1 hour in a vacuum oven. Scintillation fluid ([…]) was added to each well, and the filter plate was counted in a Packard Topcount scintillation counter. Data was analyzed using GraphPad Prism software.
(§5) Tables A through D list the IC50 values expressed in nanomolar concentration for select compounds of the invention in all receptor subtypes.

For the next assay, the target named is T2, α1d-AR (Homo sapiens, UniProt P25100).
T2 construct: expressed in transfected cells; host or cells: COS cells, pcDNA3 vector, transient DEAE-dextran transfection
T2 sequence (P25100 1-572): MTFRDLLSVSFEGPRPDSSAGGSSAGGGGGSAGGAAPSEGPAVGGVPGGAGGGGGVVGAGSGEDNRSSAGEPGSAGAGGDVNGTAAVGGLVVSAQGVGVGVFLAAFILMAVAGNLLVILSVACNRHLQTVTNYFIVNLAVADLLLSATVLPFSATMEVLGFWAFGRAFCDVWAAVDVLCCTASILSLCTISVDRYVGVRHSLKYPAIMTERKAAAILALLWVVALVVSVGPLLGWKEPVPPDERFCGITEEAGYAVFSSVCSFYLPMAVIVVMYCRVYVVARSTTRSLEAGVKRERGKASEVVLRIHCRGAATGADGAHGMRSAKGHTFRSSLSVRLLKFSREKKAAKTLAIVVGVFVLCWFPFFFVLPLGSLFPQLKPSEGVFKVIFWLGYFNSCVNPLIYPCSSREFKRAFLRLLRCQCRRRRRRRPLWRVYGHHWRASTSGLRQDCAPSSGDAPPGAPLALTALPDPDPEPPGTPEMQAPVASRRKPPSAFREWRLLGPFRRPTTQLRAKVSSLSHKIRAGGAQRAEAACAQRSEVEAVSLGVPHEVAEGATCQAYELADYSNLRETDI
Described as above. As to conditions: [125I]-HEAT 50 pM, 1 hour room temperature.
Excerpt: as §1, §2, §3, §4, §5

Where only a bound is given, the exact number is not on record here.

A word on the IC50: it is the concentration needed to halve the response being measured. A low value points to higher potency. In the case of `COc1ccc(N2C(=O)c3ccc(C(=O)NCC(O)CN4CCN(c5ccccc5OC(C)C)CC4)cc3C2=O)cc1` (centres unmarked) [Compound 55], the 50% inhibitory concentration (IC50) on α1b-AR is above 2000 nM; on α1d-AR, 51 nM.
